Structures can show the parent of a compound that is named as a salt.
Tests used:
Assay in all cases: In vitro antibacterial activity, two-fold agar-plate dilution method (MIC)
Type in all cases: cell-based
E. coli 31 = conditions: Escherichia coli, heart infusion agar, 10^6 viable cells per ml, 37°C for 20 hours
Experimental: (§1) In vitro antibacterial activity was determined by the two-fold agar-plate dilution method as described below. One loopful of an overnight culture of each test strain in Trypticase-soy broth (10^6 viable cells per ml) was streaked on heart infusion agar (HI-agar) containing graded concentrations of representative test compound, and the minimal inhibitory concentration (MIC) was expressed in terms of µg/ml after incubation at 37°C for 20 hours.

P. aeruginosa 2 = conditions: Pseudomonas aeruginosa, heart infusion agar, 10^6 viable cells per ml, 37°C for 20 hours
Experimental: as §1

S. aureus 2538 = conditions: Staphylococcus aureus, heart infusion agar, 10^6 viable cells per ml, 37°C for 20 hours
Experimental: as §1

With CCO/N=C(\C(=O)N[C@@H]1C(=O)N2C(C(=O)[O-])=C(C[n+]3ccc(N)n3CCO)CS[C@H]12)c1nsc(N)n1 [7β-[2-(5-Amino-1,2,4-thiadiazol-3-yl)-2-ethoxyiminoacetamido]-3-[3-amino-2-(2-hydroxyethyl)-1-pyrazolio]methyl-3-cephem-4-carboxylate hydrochloride (syn isomer)] the MIC (E. coli 31) was at most 0.025 µg/mL, the MIC (P. aeruginosa 2) was 0.39 µg/mL and the MIC (S. aureus 2538) was 3.13 µg/mL.

Reference: patent EP0674645B1, “CEPHEM COMPOUNDS WITH ANTIMICROBIAL ACTIVITY” (FUJISAWA PHARMACEUTICAL CO., LTD., priority 1992, dated 1994)
